Experimental data: ChEMBL document CHEMBL2073817 (J Pharmacol Exp Ther, 2002)

What was measured:
[1] = molecular target: T1, OAT4 (Solute carrier family 22 member 11) (Homo sapiens, UniProt Q9NSA0); test: TP_TRANSPORTER: inhibition of MTX uptake (MTX: 1 uM, Ibuprofen: 1000 uM) in OAT4-expressing S2 cells; assay type: functional, cell-based; parameters: scale not given: the % may be the effect or the level left; conditions: probe MTX, read-out: Activity
T1 sequence (Q9NSA0 whole entry): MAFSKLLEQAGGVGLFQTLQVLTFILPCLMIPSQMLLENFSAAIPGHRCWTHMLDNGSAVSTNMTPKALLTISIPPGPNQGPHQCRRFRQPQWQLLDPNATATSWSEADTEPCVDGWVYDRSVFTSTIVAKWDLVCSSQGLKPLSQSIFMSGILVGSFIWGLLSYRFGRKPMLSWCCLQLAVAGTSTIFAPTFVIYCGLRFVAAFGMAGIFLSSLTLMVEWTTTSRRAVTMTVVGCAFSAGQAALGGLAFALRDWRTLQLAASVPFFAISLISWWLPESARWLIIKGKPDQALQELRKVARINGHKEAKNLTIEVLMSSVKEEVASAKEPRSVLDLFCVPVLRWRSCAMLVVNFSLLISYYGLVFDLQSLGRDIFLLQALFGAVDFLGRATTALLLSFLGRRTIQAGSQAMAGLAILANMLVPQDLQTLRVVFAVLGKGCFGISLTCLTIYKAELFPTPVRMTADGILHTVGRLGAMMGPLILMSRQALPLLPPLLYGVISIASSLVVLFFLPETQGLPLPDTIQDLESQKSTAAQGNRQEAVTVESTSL

[2] = molecular target: T1, OAT4 (Solute carrier family 22 member 11); test: TP_TRANSPORTER: inhibition of MTX uptake (MTX: 1 uM, Indomethacin: 500 uM) in OAT4-expressing S2 cells; assay type: functional, cell-based; parameters: scale not given: the % may be the effect or the level left; conditions: probe MTX, read-out: Activity
[3] = molecular target: T2, OAT1 (Solute carrier family 22 member 6) (Homo sapiens, UniProt Q4U2R8); test: TP_TRANSPORTER: inhibition of MTX uptake (MTX: 1 uM, Indomethacin: 500 uM) in OAT1-expressing S2 cells; assay type: functional, cell-based; parameters: scale not given: the % may be the effect or the level left; conditions: mouse, probe MTX, read-out: Activity
T2 sequence (Q4U2R8 whole entry): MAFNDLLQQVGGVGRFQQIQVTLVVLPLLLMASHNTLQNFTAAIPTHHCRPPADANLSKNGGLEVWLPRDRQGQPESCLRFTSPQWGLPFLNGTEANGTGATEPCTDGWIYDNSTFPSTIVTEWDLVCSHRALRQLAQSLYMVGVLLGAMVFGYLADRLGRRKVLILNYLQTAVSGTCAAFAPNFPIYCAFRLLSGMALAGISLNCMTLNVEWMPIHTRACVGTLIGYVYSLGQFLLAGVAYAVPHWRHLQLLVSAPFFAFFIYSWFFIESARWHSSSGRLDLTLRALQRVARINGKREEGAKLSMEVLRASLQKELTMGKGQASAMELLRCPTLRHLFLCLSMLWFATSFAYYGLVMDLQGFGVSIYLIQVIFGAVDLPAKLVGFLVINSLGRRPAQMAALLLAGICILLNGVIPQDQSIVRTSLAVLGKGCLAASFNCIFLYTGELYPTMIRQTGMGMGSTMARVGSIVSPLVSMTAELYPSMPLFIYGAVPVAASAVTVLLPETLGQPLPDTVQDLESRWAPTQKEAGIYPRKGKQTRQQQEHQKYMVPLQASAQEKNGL

[4] = molecular target: T3, Organic anion transporter 3 (Homo sapiens, UniProt Q8TCC7); test: TP_TRANSPORTER: inhibition of MTX uptake in OAT3-expressing S2 cells; assay type: functional, cell-based
T3 sequence (Q8TCC7 whole entry): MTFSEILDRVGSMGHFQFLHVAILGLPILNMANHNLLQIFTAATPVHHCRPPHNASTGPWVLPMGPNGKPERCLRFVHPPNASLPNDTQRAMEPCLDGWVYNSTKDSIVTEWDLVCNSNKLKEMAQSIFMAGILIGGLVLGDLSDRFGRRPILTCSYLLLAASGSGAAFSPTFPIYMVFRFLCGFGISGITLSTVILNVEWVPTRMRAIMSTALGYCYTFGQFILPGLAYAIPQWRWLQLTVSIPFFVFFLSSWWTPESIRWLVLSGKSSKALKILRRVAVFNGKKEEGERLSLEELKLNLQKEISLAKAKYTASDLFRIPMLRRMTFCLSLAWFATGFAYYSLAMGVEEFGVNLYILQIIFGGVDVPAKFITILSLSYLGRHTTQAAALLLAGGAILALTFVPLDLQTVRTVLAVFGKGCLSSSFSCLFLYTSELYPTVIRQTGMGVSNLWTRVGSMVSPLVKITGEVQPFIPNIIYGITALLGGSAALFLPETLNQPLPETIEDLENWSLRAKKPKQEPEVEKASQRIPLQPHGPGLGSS

[5] = molecular target: T1, OAT4 (Solute carrier family 22 member 11); test: TP_TRANSPORTER: inhibition of MTX uptake (MTX: 1 uM, Ketoprofen: 1000 uM) in OAT4-expressing S2 cells; assay type: functional, cell-based; parameters: scale not given: the % may be the effect or the level left; conditions: mouse, probe MTX, read-out: Activity
[6] = molecular target: T2, OAT1 (Solute carrier family 22 member 6); test: TP_TRANSPORTER: inhibition of MTX uptake (MTX: 1 uM, Ketoprofen: 1000 uM) in OAT1-expressing S2 cells; assay type: functional, cell-based; parameters: scale not given: the % may be the effect or the level left; conditions: probe MTX, read-out: Activity
[7] = molecular target: T1, OAT4 (Solute carrier family 22 member 11); test: TP_TRANSPORTER: inhibition of MTX uptake (MTX: 1 uM, PCG: 1000 uM) in OAT4-expressing S2 cells; assay type: functional, cell-based; parameters: scale not given: the % may be the effect or the level left; conditions: mouse, probe MTX, read-out: Activity
[8] = molecular target: T1, OAT4 (Solute carrier family 22 member 11); test: TP_TRANSPORTER: inhibition of MTX uptake (MTX: 1 uM, Phenylbutazone: 1000 uM) in OAT4-expressing S2 cells; assay type: functional, cell-based; parameters: scale not given: the % may be the effect or the level left; conditions: probe MTX, read-out: Activity
[9] = molecular target: T2, OAT1 (Solute carrier family 22 member 6); test: TP_TRANSPORTER: inhibition of MTX uptake (MTX: 1 uM, Phenylbutazone: 1000 uM) in OAT1-expressing S2 cells; assay type: functional, cell-based; parameters: scale not given: the % may be the effect or the level left; conditions: probe MTX, read-out: Activity
[10] = molecular target: T1, OAT4 (Solute carrier family 22 member 11); test: TP_TRANSPORTER: inhibition of MTX uptake (MTX: 1 uM, Piroxicam: 1000 uM) in OAT4-expressing S2 cells; assay type: functional, cell-based; parameters: scale not given: the % may be the effect or the level left; conditions: mouse, probe MTX, read-out: Activity
[11] = molecular target: T1, OAT4 (Solute carrier family 22 member 11); test: TP_TRANSPORTER: inhibition of MTX uptake (MTX: 1 uM, Probenecid: 1000 uM) in OAT4-expressing S2 cells; assay type: functional, cell-based; parameters: scale not given: the % may be the effect or the level left; conditions: probe MTX, read-out: Activity
[12] = substrate: CN(Cc1cnc2nc(N)nc(N)c2n1)c1ccc(C(=O)N[C@@H](CCC(=O)O)C(=O)O)cc1; test: TP_TRANSPORTER: uptake in OAT1-expressing S2 cells; assay type: functional, cell-based
[13] = substrate: CN(Cc1cnc2nc(N)nc(N)c2n1)c1ccc(C(=O)N[C@@H](CCC(=O)O)C(=O)O)cc1; test: cells, lysate or membranes named

CC(C)Cc1ccc(C(C)C(=O)O)cc1 (centres undefined) [IBUPROFEN]
activity at 1000 µM [1]: 67.8%

COc1ccc2c(c1)c(CC(=O)O)c(C)n2C(=O)c1ccc(Cl)cc1 [INDOMETHACIN]
activity at 500 µM [2]: 60.9% | activity at 500 µM [3]: 60.6% | Ki [4]: 5.95 µM

CC(C(=O)O)c1cccc(C(=O)c2ccccc2)c1 (centres undefined) [KETOPROFEN]
activity at 1000 µM [5]: 81% | activity at 1000 µM [6]: 53.4% | Ki [4]: 1160 µM

CC1(C)S[C@@H]2[C@H](NC(=O)Cc3ccccc3)C(=O)N2[C@H]1C(=O)O [PENICILLIN G]
activity at 1000 µM [7]: 79.7% | Ki [4]: 97.6 µM

CCCCC1C(=O)N(c2ccccc2)N(c2ccccc2)C1=O [PHENYLBUTAZONE]
activity at 1000 µM [8]: 55.7% | activity at 1000 µM [9]: 30% | Ki [4]: 34.7 µM

CN1C(C(=O)Nc2ccccn2)=C(O)c2ccccc2S1(=O)=O [PIROXICAM]
activity at 1000 µM [10]: 62% | Ki [4]: 1200 µM

CCCN(CCC)S(=O)(=O)c1ccc(C(=O)O)cc1 [PROBENECID]
activity at 1000 µM [11]: 81.6%

O=C(O)c1ccccc1O [SALICYLIC ACID]
Ki [4]: 1020 µM

B1: Solute carrier family 22 member 11 (Homo sapiens) (protein)
chain: MAFSKLLEQAGGVGLFQTLQVLTFILPCLMIPSQMLLENFSAAIPGHRCWTHMLDNGSAVSTNMTPKALLTISIPPGPNQGPHQCRRFRQPQWQLLDPNATATSWSEADTEPCVDGWVYDRSVFTSTIVAKWDLVCSSQGLKPLSQSIFMSGILVGSFIWGLLSYRFGRKPMLSWCCLQLAVAGTSTIFAPTFVIYCGLRFVAAFGMAGIFLSSLTLMVEWTTTSRRAVTMTVVGCAFSAGQAALGGLAFALRDWRTLQLAASVPFFAISLISWWLPESARWLIIKGKPDQALQELRKVARINGHKEAKNLTIEVLMSSVKEEVASAKEPRSVLDLFCVPVLRWRSCAMLVVNFSLLISYYGLVFDLQSLGRDIFLLQALFGAVDFLGRATTALLLSFLGRRTIQAGSQAMAGLAILANMLVPQDLQTLRVVFAVLGKGCFGISLTCLTIYKAELFPTPVRMTADGILHTVGRLGAMMGPLILMSRQALPLLPPLLYGVISIASSLVVLFFLPETQGLPLPDTIQDLESQKSTAAQGNRQEAVTVESTSL
Km [12]: 17.8 µM

B2: Organic anion transporter 3 (Homo sapiens) (protein)
chain: MTFSEILDRVGSMGHFQFLHVAILGLPILNMANHNLLQIFTAATPVHHCRPPHNASTGPWVLPMGPNGKPERCLRFVHPPNASLPNDTQRAMEPCLDGWVYNSTKDSIVTEWDLVCNSNKLKEMAQSIFMAGILIGGLVLGDLSDRFGRRPILTCSYLLLAASGSGAAFSPTFPIYMVFRFLCGFGISGITLSTVILNVEWVPTRMRAIMSTALGYCYTFGQFILPGLAYAIPQWRWLQLTVSIPFFVFFLSSWWTPESIRWLVLSGKSSKALKILRRVAVFNGKKEEGERLSLEELKLNLQKEISLAKAKYTASDLFRIPMLRRMTFCLSLAWFATGFAYYSLAMGVEEFGVNLYILQIIFGGVDVPAKFITILSLSYLGRHTTQAAALLLAGGAILALTFVPLDLQTVRTVLAVFGKGCLSSSFSCLFLYTSELYPTVIRQTGMGVSNLWTRVGSMVSPLVKITGEVQPFIPNIIYGITALLGGSAALFLPETLNQPLPETIEDLENWSLRAKKPKQEPEVEKASQRIPLQPHGPGLGSS
Km [12]: 21.1 µM

B3: Solute carrier family 22 member 6 (Homo sapiens) (protein)
chain: MAFNDLLQQVGGVGRFQQIQVTLVVLPLLLMASHNTLQNFTAAIPTHHCRPPADANLSKNGGLEVWLPRDRQGQPESCLRFTSPQWGLPFLNGTEANGTGATEPCTDGWIYDNSTFPSTIVTEWDLVCSHRALRQLAQSLYMVGVLLGAMVFGYLADRLGRRKVLILNYLQTAVSGTCAAFAPNFPIYCAFRLLSGMALAGISLNCMTLNVEWMPIHTRACVGTLIGYVYSLGQFLLAGVAYAVPHWRHLQLLVSAPFFAFFIYSWFFIESARWHSSSGRLDLTLRALQRVARINGKREEGAKLSMEVLRASLQKELTMGKGQASAMELLRCPTLRHLFLCLSMLWFATSFAYYGLVMDLQGFGVSIYLIQVIFGAVDLPAKLVGFLVINSLGRRPAQMAALLLAGICILLNGVIPQDQSIVRTSLAVLGKGCLAASFNCIFLYTGELYPTMIRQTGMGMGSTMARVGSIVSPLVSMTAELYPSMPLFIYGAVPVAASAVTVLLPETLGQPLPDTVQDLESRWAPTQKEAGIYPRKGKQTRQQQEHQKYMVPLQASAQEKNGL
Km [13]: 554 µM
